ChEMBL document CHEMBL1201862, “PubChem BioAssay data set” (2004)
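These data come from cells grown in 96-well plates and exposed to compound for 48 hours at five concentrations. GI50: concentration for 50% inhibition of growth.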 Calls of active or inactive are those of the source. Cut-off read from the data, not from the text of the source: active = GI50 up to about 1.1 µM and inactive = higher.

How the values were obtained:
Experiment in all cases: NCI anticancer screen, dose series, 48 h
[1] = test system: Hs-578T
[2] = test system: SF-268
[3] = test system: CCRF-CEM
[4] = test system: CAKI-1
[5] = test system: SK-MEL-28
[6] = test system: M19-MEL
[7] = test system: IGROV-1
[8] = test system: SK-MEL-2
[9] = test system: OVCAR-5
[10] = test system: HT-29
[11] = test system: NCI-H23
[12] = test system: MDA-MB-435
[13] = test system: XF498
[14] = test system: MOLT-4
[15] = test system: SW-620
[16] = test system: DU-145
[17] = test system: SNB-78
[18] = test system: SN12C
[19] = test system: TK-10
[20] = test system: HCT-116
[21] = test system: SK-MEL-5
[22] = test system: SNB-75
[23] = test system: UACC-257
[24] = test system: UACC-62
[25] = test system: ACHN
[26] = test system: HCT-15
[27] = test system: SNB-19
[28] = test system: UO-31
[29] = test system: HOP-18
[30] = test system: U-251
[31] = test system: NCI-H226
[32] = test system: T47D
[33] = test system: DLD-1
[34] = test system: PC-3
[35] = test system: SF-539
[36] = test system: OVCAR-8
[37] = test system: HOP-62
[38] = test system: BT-549
[39] = test system: OVCAR-4
[40] = test system: 786-0
[41] = test system: KM-20L2
[42] = test system: HOP-92
[43] = test system: MDA-MB-231
[44] = test system: OVCAR-3
[45] = test system: SF-295
[46] = test system: MDA-N
[47] = test system: A549
[48] = test system: DMS-273
[49] = test system: LOX IMVI
[50] = test system: K562
[51] = test system: SK-OV-3
[52] = test system: HL-60
[53] = test system: EKVX
[54] = test system: M14
[55] = test system: HCC 2998
[56] = test system: RPMI-8226
[57] = test system: MCF7
[58] = test system: Malme-3M
[59] = test system: LXFL 529
[60] = test system: COLO 205
[61] = test system: NCI-H460
[62] = test system: A498
[63] = test system: SR
[64] = test system: DMS-114
[65] = test system: RXF 631
[66] = test system: KM12
[67] = test system: NCI-H522
[68] = test system: RXF 393

Q: How did the GI50 [1] turn out when CC(=O)OC1CC[C@@]2(C)C(CC[C@]3(C)C2CC=C2[C@@H]4CC(C)(C)CCC4(C)CCC23C)[C@@]1(C)C(=O)O (stereo partly drawn) was run?
A: The GI50 was 20.5 µM (inactive).

Q: What about the GI50 [2] of the same compound?
A: Its GI50 is 18.2 µM (inactive).

Q: What about the GI50 [3] of the same compound?
A: The GI50 was 23.4 µM (inactive).

Q: And the GI50 [4]?
A: Its GI50 is 18.5 µM (inactive).

Q: What about the GI50 [5] of the same compound?
A: The GI50 was 21.2 µM (inactive).

Q: And the GI50 [6]?
A: Its GI50 is 22.2 µM (inactive).

Q: And the GI50 [7]?
A: The GI50 was 16.4 µM (inactive).

Q: And the GI50 [8]?
A: The GI50 was 15.7 µM (inactive).

Q: What about the GI50 [9] of the same compound?
A: The GI50 was 22.7 µM (inactive).

Q: And the GI50 [10]?
A: The GI50 was 15.9 µM (inactive).

Q: What about the GI50 [11] of the same compound?
A: The GI50 was 11.4 µM (inactive).

Q: And the GI50 [12]?
A: The GI50 was 15.2 µM (inactive).

Q: And the GI50 [13]?
A: Its GI50 is 20.5 µM (inactive).

Q: What about the GI50 [14] of the same compound?
A: The GI50 was 17.6 µM (inactive).

Q: And the GI50 [15]?
A: The GI50 was 13.5 µM (inactive).

Q: What about the GI50 [16] of the same compound?
A: The GI50 was 16.6 µM (inactive).

Q: What about the GI50 [17] of the same compound?
A: Its GI50 is 20.5 µM (inactive).

Q: What about the GI50 [18] of the same compound?
A: The GI50 was 16.4 µM (inactive).

Q: What about the GI50 [19] of the same compound?
A: Its GI50 is 22.3 µM (inactive).

Q: And the GI50 [20]?
A: Its GI50 is 13.2 µM (inactive).

Q: What about the GI50 [21] of the same compound?
A: The GI50 was 16.9 µM (inactive).

Q: What about the GI50 [22] of the same compound?
A: Its GI50 is 23 µM (inactive).

Q: What about the GI50 [23] of the same compound?
A: The GI50 was 19.9 µM (inactive).

Q: And the GI50 [24]?
A: Its GI50 is 15.4 µM (inactive).

Q: And the GI50 [25]?
A: The GI50 was 12.1 µM (inactive).

Q: What about the GI50 [26] of the same compound?
A: The GI50 was 7.93 µM.

Q: What about the GI50 [27] of the same compound?
A: The GI50 was 18.9 µM (inactive).

Q: What about the GI50 [28] of the same compound?
A: The GI50 was 16 µM (inactive).

Q: And the GI50 [29]?
A: The GI50 was 21.9 µM (inactive).

Q: What about the GI50 [30] of the same compound?
A: The GI50 was 10.3 µM (inactive).

Q: What about the GI50 [31] of the same compound?
A: The GI50 was 22 µM (inactive).

Q: And the GI50 [32]?
A: Its GI50 is 15.4 µM (inactive).

Q: And the GI50 [33]?
A: The GI50 was 10.1 µM (inactive).

Q: What about the GI50 [34] of the same compound?
A: The GI50 was 6.61 µM (inactive).

Q: What about the GI50 [35] of the same compound?
A: Its GI50 is 19.9 µM (inactive).

Q: And the GI50 [36]?
A: The GI50 was 14 µM (inactive).

Q: And the GI50 [37]?
A: Its GI50 is 19.9 µM (inactive).

Q: What about the GI50 [38] of the same compound?
A: Its GI50 is 29.9 µM (inactive).

Q: What about the GI50 [39] of the same compound?
A: The GI50 was 14.9 µM (inactive).

Q: What about the GI50 [40] of the same compound?
A: The GI50 was 17.6 µM (inactive).

Q: And the GI50 [41]?
A: Its GI50 is 13.9 µM (inactive).

Q: And the GI50 [42]?
A: The GI50 was 20.4 µM (inactive).

Q: And the GI50 [43]?
A: Its GI50 is 20.9 µM (inactive).

Q: What about the GI50 [44] of the same compound?
A: The GI50 was 15.1 µM (inactive).

Q: And the GI50 [45]?
A: Its GI50 is 17.9 µM (inactive).

Q: What about the GI50 [46] of the same compound?
A: The GI50 was 21.9 µM (inactive).

Q: What about the GI50 [47] of the same compound?
A: Its GI50 is 7.41 µM (inactive).

Q: What about the GI50 [48] of the same compound?
A: The GI50 was 16.4 µM (inactive).

Q: And the GI50 [49]?
A: Its GI50 is 13.8 µM (inactive).

Q: What about the GI50 [50] of the same compound?
A: The GI50 was 19.2 µM (inactive).

Q: And the GI50 [51]?
A: The GI50 was 17.7 µM (inactive).

Q: What about the GI50 [52] of the same compound?
A: Its GI50 is 31.3 µM (inactive).

Q: And the GI50 [53]?
A: Its GI50 is 16.1 µM (inactive).

Q: And the GI50 [54]?
A: The GI50 was 19.9 µM (inactive).

Q: And the GI50 [55]?
A: The GI50 was 14.5 µM (inactive).

Q: And the GI50 [56]?
A: The GI50 was 10.8 µM (inactive).

Q: What about the GI50 [57] of the same compound?
A: The GI50 was 14.9 µM (inactive).

Q: And the GI50 [58]?
A: The GI50 was 21.4 µM (inactive).

Q: What about the GI50 [59] of the same compound?
A: The GI50 was 13.3 µM (inactive).

Q: What about the GI50 [60] of the same compound?
A: Its GI50 is 19.1 µM (inactive).

Q: What about the GI50 [61] of the same compound?
A: The GI50 was 10.7 µM (inactive).

Q: And the GI50 [62]?
A: Its GI50 is 19.2 µM (inactive).

Q: What about the GI50 [63] of the same compound?
A: Its GI50 is 22.8 µM (inactive).

Q: And the GI50 [64]?
A: The GI50 was 16.4 µM (inactive).

Q: What about the GI50 [65] of the same compound?
A: Its GI50 is 12.9 µM (inactive).

Q: And the GI50 [66]?
A: The GI50 was 12 µM (inactive).

Q: What about the GI50 [67] of the same compound?
A: The GI50 was 5.77 µM (inactive).

Q: What about the GI50 [68] of the same compound?
A: The GI50 was 16.6 µM (inactive).
